Read-outs that look alike come from different tables or passages of the source. Some results are limits rather than exact numbers.

This note sets out measurements from paper PMC8147293, “Library of Selenocyanate and Diselenide Derivatives as In Vivo Antichagasic Compounds Targeting Trypanosoma cruzi Mitochondrion” (Pharmaceuticals, 2021).

Assay [1] deals with Trypanosoma cruzi. The experiment in a line: Parasitemia reactivation after immunosuppression in BALB/c mice. It is filed as in vivo. The following applies: acute and chronic CD, 20 mg/kg per day for 5 days. Here is the method:
Secondly, the experimental cure was determined using a double checking widely used in in vivo trypanocidal trials. This double checking—based on immunosuppression and PCR (Figure 2B,C, respectively)—was performed to evaluate the treatment effectiveness and the disease extent in both acute and chronic CD at the end of the in vivo timeline. The mice whose parasitemia and PCR remain negative after immunosuppression are considered cured.
Immunosuppression enhances the reactivation of any residual infection, which is proportional to the parasite survival rate.
(§1) Infection was carried out by intraperitoneal inoculation of 5 × 10^5 BTs of T. cruzi per mouse in 0.2 mL PBS [56]. The mice were treated by oral route (~200 µL) once daily for 5 consecutive days. The treatment for mice treated in the acute and chronic phases began when the infection was confirmed (9th day post-infection (dpi)) and was established that the animals had entered the chronic phase (100th dpi), respectively.
(§2) The mice were divided into six groups (n = 3 per group): 0, negative control group (uninfected and untreated mice); I, positive control group (infected and untreated mice); II, BZN group (mice infected and treated with BZN); III, 8 group (mice infected and treated with 8); IV, 10 group (mice infected and treated with 10); V, 15 group (mice infected and treated with 15). The tested compounds and BZN were prepared at 2 mg·mL^−1 in an aqueous suspension vehicle containing 5% (v/v) DMSO and 0.5% (w/v) hydroxypropyl methylcellulose, as previously reported. Therefore, doses of 20 mg·kg^−1 per day were administered for 5 consecutive days, and vehicle only was administered in the negative and positive control groups.
(§3) All in vivo assays for the evaluation of compounds in the acute and chronic CD (Scheme 1)—monitoring of parasitemia, immunosuppression, PCR [59, 60], ELISA [56], and clinical analysis [56]—were performed as previously described. PCR was based on the Spliced Leader (SL) intergenic region sequence of T. cruzi (for detailed description, see literature reported previously).

For assay [2], the system named is epimastigotes of T. cruzi Arequipa strain. Nature of the assay: Screening against extracellular epimastigotes (resazurin). The assay is classed as cell-based, Trypanosoma cruzi. Conditions: for Selectivity Index Epimast.: IC50 Vero cells/IC50 epimastigotes; for IC50: Trypanosoma cruzi. Here is the method: Trypanocidal activity against epimastigotes of T. cruzi Arequipa strain (MHOM/Pe/2011/Arequipa, discrete typing unit V) was tested as previously described. In short, 5 × 10^5 epimastigotes·mL^−1 were treated by adding the tested compounds at a concentration range from 100 to 0.2 µM in 96-well microplates (200 µL·well^−1) for 48 h. Subsequently, resazurin sodium salt (Sigma-Aldrich) was added to be incubated for further 24 h. Finally, the absorbance was measured, and the trypanocidal activity was expressed as the IC50 (inhibitory concentration 50) using GraphPad Prism 6 software. Each compound concentration was tested in triplicate in three independent experiments.

Assay [3] deals with Trypanosoma cruzi amastigotes in Vero cells. The experiment in a line: Infection rate and amastigotes per Vero cell over 10 days. Conditions: IC25 concentrations, measured at 2 days intervals for 10 days. It is filed as cell-based. Here is the method: Before going ahead on in vivo trials, the in vitro infection rate and the average number of amastigotes per Vero cell were also measured at 2 days intervals for 10 days after treating the infected cultures with BZN and potential candidates (8, 10, and 15) (Figure 1) at ICH25 concentrations resulting from amastigotes screening. […]. Fast-acting drugs are urgently needed, and this feature is an additional advantage since they can eliminate the parasite in a few doses.
(§4) Trypanocidal activity against amastigotes was determined according to the literature reported previously. […]. […] Each compound concentration was tested in triplicate in four separate determinations.
Figure 1 (A) Percentage of infected Vero cells and (B) number of amastigotes of Trypanosoma cruzi per Vero cell exposed to benznidazole (BZN), 8, 10 and 15. Values constitute means of three separate determinations ± standard deviation. * Significant differences between untreated and treated parasites for α = 0.05. dpi, days post-infection.

Assay [4] addresses T1, human erythrocytes CuZn-SOD (Homo sapiens, UniProt P00441).
T1 construct: commercial Cu/Zn-SOD from human erythrocytes (Sigma-Aldrich); purchased Sigma-Aldrich; host or cells: human erythrocytes
Nature of the assay: SOD enzymatic inhibition, CuZn-SOD. It is filed as biochemical. Conditions: 100 to 0.1 µM, read-out: CuZn-SOD IC50 (in brackets). Here is the method: (§5) Excreted Fe-SOD protein—obtained and quantified as previously described [64]—and commercial Cu/Zn-SOD from human erythrocytes (Sigma-Aldrich) were exposed to the tested compounds at a concentration range from 100 to 0.1 µM to determine in vitro activities using the method previously described.

The subject of assay [5] is Trypanosoma cruzi. The experiment in a line: Anti-T. cruzi IgG (ELISA) and splenomegaly in treated BALB/c mice. The following applies: treated BALB/c mice versus untreated; excluding IgG levels of chronic CD. The assay is classed as in vivo. Here is the method: Otherwise, the immune status of the mice was evaluated—through the titer of total anti-T. cruzi IgG and the splenomegaly (Figure S1)—since it is a characteristic linked to the parasite load and the effectiveness ascribed to the potential candidates. […].
as §3
Figure S1. A) Anti-Trypanosoma cruzi immunoglobulin G levels, expressed in absorbance at 492 nm, at different days post-infection (dpi) for each group of mice treated during the acute and chronic phases of Chagas disease: control (untreated), benznidazole (BZN), 8, 10 and 15. Blank and uninfected mice are also […]
included. […] Values are the means of three mice ± standard deviation. (IS) immunosuppression. * Significant differences between untreated and treated mice for α =
0.05. B) Weight percentage of spleens in the chronic Chagas disease for each group of mice treated during the acute and chronic phases of the disease: control (untreated), benznidazole (BZN), 8, 10 and 15. Values are the means of three mice ± standard deviation. In brackets: reduction of splenomegaly in comparison to […]
(1 picture or pasted object on this page, not shown here)

Assay [6] has as its system Trypanosoma cruzi bloodstream trypomastigotes (BTs). Nature of the assay: Screening against bloodstream trypomastigotes (resazurin). The assay is classed as cell-based. The following applies: for Selectivity Index Trypomast.: IC50 Vero cells/IC50 trypomastigotes; for IC50: Trypanosoma cruzi, Table 1, bloodstream trypomastigotes, 24 h treatment + 4 h resazurin, read-out: Activity IC50 Trypomast. Here is the method:
2 × 10^6 Bloodstream trypomastigotes (BTs), obtained by cardiac puncture from infected BALB/c mice as previously described, were treated by adding the tested compounds at a concentration range from 50 to 0.1 µM in 96-well microplates (200 µL·well^−1) at 37 °C. After 24 h of treatment, resazurin sodium salt (Sigma-Aldrich) was added to be incubated for further 4 h. Finally, trypanocidal activity was determined following the same procedure as described to assess the trypanocidal activity in the epimastigotes. Each compound concentration was tested in triplicate in three independent experiments.

In assay [7] the test system is Trypanosoma cruzi intracellular amastigotes. The experiment in a line: Screening against intracellular amastigotes in Vero cells (Giemsa counting). The assay is classed as cell-based. Conditions: for Selectivity Index Amast.: IC50 Vero cells/IC50 amastigotes; for IC50: Trypanosoma cruzi, Table 1, intracellular amastigotes in Vero cells, 72 h, read-out: Activity IC50 Amast. Here is the method:
as §4

For assay [8], the system named is Mammalian Vero cells. Nature of the assay: Cytotoxicity test on Vero cells (resazurin). Conditions: Chlorocebus sabaeus, 72 h; Table 1; Vero cells, 48 h + 24 h resazurin; read-out: Toxicity IC50 Vero Cell. It is filed as cell-based. Here is the method:
Mammalian Vero cells (EACC No. 84113001), cultured as previously reported, were used to determine the cytotoxicity of the tested compounds [56]. In short, 1.25 × 10^4 Vero cells·mL^−1 were treated by adding the compounds at a concentration range from 400 to 1 µM in 96-well microplates (200 µL·well^−1) at 37 °C for 48 h. Subsequently, resazurin sodium salt (Sigma-Aldrich) was added to be incubated for further 24 h. Finally, cell viability was determined following the same procedure as described to assess the trypanocidal activity in the epimastigotes. Each compound concentration was tested in triplicate in three independent experiments.

The test system of assay [9] is Trypanosoma cruzi Fe-SOD. Nature of the assay: SOD enzymatic inhibition, Fe-SOD. It is filed as biochemical. Conditions: at 100 µM. Here is the method: as §5
The subject of assay [10] is Trypanosoma cruzi. Nature of the assay: Parasitemia monitoring in infected BALB/c mice, acute Chagas disease. It is filed as in vivo. The following applies: oral 20 mg/kg per day for 5 days from 9th dpi, versus untreated. Here is the method:
as §1, §2, §3

For assay [11], the system named is epimastigotes of T. cruzi Arequipa. Nature of the assay: 1H NMR analysis of excreted metabolites. The assay is classed as cell-based, Trypanosoma cruzi. Conditions: IC25 concentrations, 72 h. Here is the method:
5 × 10^5 epimastigotes·mL^−1 of T. cruzi Arequipa were treated by adding the tested compounds at IC25 concentrations in 25 cm^2 cell culture flasks at 28 °C for 72 h. Untreated controls were also included. Cultures were then centrifuged and filtered, and the metabolites of the supernatants were analyzed using a ^1H NMR spectrometer (VARIAN DIRECT DRIVE 500 MHz […]) with AutoX probe, D2O as solvent and 2,2-dimethyl-2-silapentane-5-sulphonate as the reference signal. Chemical shifts were expressed in parts per million (ppm), and analyses were conducted as previously reported.

Where [12] appears, read: Table 1, T. cruzi epimastigotes, 48 h treatment + 24 h resazurin, read-out: Activity IC50 Epimast.
Where [13] appears, read: Table S1, cultured epimastigote form of T. cruzi, read-out: Activity IC50.
Setting [14] is: 72 h, Table 1, T. cruzi epimastigotes, 48 h treatment + 24 h resazurin, read-out: Activity IC50 Epimast.

T1 sequence (P00441 whole entry): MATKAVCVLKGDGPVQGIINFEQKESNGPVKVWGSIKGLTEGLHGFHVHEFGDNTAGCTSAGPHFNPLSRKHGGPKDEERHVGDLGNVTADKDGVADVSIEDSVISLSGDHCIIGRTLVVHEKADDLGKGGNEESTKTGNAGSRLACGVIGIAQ

Take `CSc1ccc(C[Se][Se]Cc2ccc(SC)cc2)cc1` [compound 10]: the “reactivation of infection after immunosuppression (in words)” value in assay [1] is reported as “light activity”. Also, the “Selectivity Index Epimast.” value in assay [2] turned out to be 75. In addition, the IC50 is 1.8 ± 0.2 µM in assay [2] (setting [12]); not above 10 µM in [2] (setting [13]); more than 100 µM in assay [4]; 1.7 ± 0.3 µM in assay [6]; 1.2 ± 0.2 µM in assay [7]. Further, in assay [3], the “infection rate and average number of amastigotes per Vero cell” value was “decrease in both infection rate and number of amastigotes per cell in a time-dependent manner”. For the same molecule, the “total anti-T. cruzi IgG levels and splenomegaly” value in assay [5] is given as “Slight or non-significant reductions”. In addition, in assay [6], the “Selectivity Index Trypomast.” value worked out at 79. Further, the “Selectivity Index Amast.” value in assay [7] stood at 112. For the same molecule, in assay [8], the CC50 came to 135 ± 6.3 µM. In assay [9], this molecule came in with a Fe-SOD inhibition of 100%. The “parasitemia levels (counting BTs) during the acute CD” value in [10] is “slight activity”. Also, the “variation of excreted metabolites versus untreated parasites” value in [11] is given as less than 10%.

In the case of `Cc1ccc(C[Se]C#N)cc1` [compound 11], in assay [2], the “Selectivity Index Epimast.” value is on record as 20. Also, the IC50 in [2] (setting [12]) is 3 ± 0.4 µM; in [2] (setting [13]), not above 10 µM; in assay [6] it was 4.5 ± 0.6 µM; in [7], 3.1 ± 0.1 µM. The “Selectivity Index Trypomast.” value in assay [6] is listed as 14. Moreover, the “Selectivity Index Amast.” value in assay [7] was 20. The CC50 in assay [8] was 61.3 ± 3.7 µM.

Consider `N#Cc1ccccc1C[Se][Se]Cc1ccccc1C#N` [compound 20], for which, in assay [2], the “Selectivity Index Epimast.” value is given as 13. The half-maximal inhibitory concentration (IC50) in assay [2] (setting [14]) was 1.3 ± 0.2 µM; in assay [2] (setting [13]) it was not above 10 µM; in [6] (28 h), 0.9 µM; in assay [7] it was 1 ± 0.1 µM. Moreover, in assay [6], the “Selectivity Index Trypomast.” value worked out at 18. Also, the “Selectivity Index Amast.” value in assay [7] amounted to 16. Besides, the CC50 in assay [8] was 16.4 ± 0.5 µM.

`N#C[Se]Cc1cccc(C#N)c1` [compound 21]: in assay [2], the “Selectivity Index Epimast.” value is on record as 22. Moreover, the half-inhibitory concentration (IC50) is 1 ± 0.2 µM in assay [2] (setting [12]), not above 10 µM in [2] (setting [13]), 0.9 ± 0.1 µM in assay [6] and 0.8 ± 0.1 µM in assay [7]. Besides, the “Selectivity Index Trypomast.” value in [6] is recorded as 24. In addition, the “Selectivity Index Amast.” value in assay [7] is 27. Further, the CC50 in [8] turned out to be 21.7 ± 1.8 µM.

With `Cc1ccc(S(=O)(=O)Nc2ccc([Se][Se]c3ccc(NS(=O)(=O)c4ccc(C)cc4)cc3)cc2)cc1` [compound 43], in assay [2], the “Selectivity Index Epimast.” value came to 13. Further, the IC50 in [2] (setting [12]) is 5.1 ± 0.6 µM; in assay [2] (setting [13]), not above 10 µM; in assay [6], 3.7 ± 0.2 µM; in assay [7] it was 4.2 ± 0.7 µM. In addition, in assay [6], the “Selectivity Index Trypomast.” value amounted to 18. Moreover, the “Selectivity Index Amast.” value in assay [7] was 16. Also, in assay [8], the CC50 turned out to be 66.9 ± 6.2 µM.

As to `O=S(=O)(Nc1ccc([Se][Se]c2ccc(NS(=O)(=O)c3ccc(-c4ccccc4)cc3)cc2)cc1)c1ccc(-c2ccccc2)cc1` [compound 46], the “Selectivity Index Epimast.” value in assay [2] worked out at 18. In addition, the 50% inhibitory concentration (IC50) in assay [2] (setting [14]) is 2.7 ± 0.8 µM; in assay [2] (setting [13]) it was not above 10 µM; in assay [6] (28 h) it was 2 ± 0.3 µM; in assay [7] it was 2.3 ± 0.1 µM. For the same molecule, the “Selectivity Index Trypomast.” value in [6] stood at 24. Besides, the “Selectivity Index Amast.” value in [7] came out at 21. Further, in assay [8], the CC50 came out at 48.6 ± 3.5 µM.

With `Cn1ccnc1S(=O)(=O)Nc1ccc([Se][Se]c2ccc(NS(=O)(=O)c3nccn3C)cc2)cc1` [compound 47], in [2], the “Selectivity Index Epimast.” value was found to be 12. In addition, the IC50 in assay [2] (setting [14]) is 3.6 ± 0.3 µM; in assay [2] (setting [13]), not above 10 µM; in [6] (28 h), 3.8 ± 0.4 µM; in assay [7], 3 ± 0.4 µM. Further, the “Selectivity Index Trypomast.” value in [6] was determined as 12. The “Selectivity Index Amast.” value in assay [7] is on record as 15. In addition, the CC50 in [8] is 44.7 ± 3 µM.
